The record followed here is ChEMBL document CHEMBL6182859, “Synthesis of Thioloformate-Containing Lathyrane Diterpene Derivates via a [3,3] Sigmatropic Rearrangement and Their Anti-HIV Activity” (J Nat Prod, 2025).

Series [1] relates to Human immunodeficiency virus 2. The experiment in a line: Anti-HIV activity against HIV-2 ROD infected in human MT4 cells assessed as inhibition of virus-induced cytopathicity measured after 4 days by CellTiter 96 Aqueous One Solution Cell Proliferation Assay. Format: functional, organism-based. The settings on record: Human immunodeficiency virus 2, ROD, MT4, 96 h.
Series [2] is described as follows: Cytotoxicity against human MT4 cells assessed as reduction in cell viability measured after 4 days by CellTiter 96 Aqueous One Solution Cell Proliferation Assay. In kind it is toxicity, cell-based. The settings on record: time 4 day.
Series [3] deals with Human immunodeficiency virus 1. The experiment in a line: Anti-HIV activity against HIV-1 NL 4.3 infected in human MT4 cells assessed as inhibition of virus-induced cytopathicity measured after 4 days by CellTiter 96 Aqueous One Solution Cell Proliferation Assay. In kind it is functional, organism-based. The settings on record: Human immunodeficiency virus 1, NL 4.3, MT4, 96 h.

A short description of series [4]: Selectivity index, ratio of CC50 for cytotoxicity against human MT4 cells to EC50 for antiviral activity against HIV-2 ROD infected in human MT4 cells. Format: toxicity, cell-based. The note with it: read-out: Ratio CC50/EC50.
Series [5] in a line: Selectivity index, ratio of CC50 for cytotoxicity against human MT4 cells to EC50 for antiviral activity against HIV-1 NL 4.3 infected in human MT4 cells. In kind it is toxicity, cell-based. The settings on record: read-out: Ratio CC50/EC50.

With `C/C1=C\[C@@H]2[C@H](CC/C(CSC(=O)Oc3cc(F)cc(F)c3)=C\C3[C@@H](O)[C@@H](C)C[C@]3(O)C1=O)C2(C)C` (some centres undefined), the EC50 in series [1] and in series [3] was above 45 µM throughout. Moreover, the half-maximal cytotoxic concentration (CC50) at 96 h in series [2] stood at 45 µM.
With `C/C1=C\[C@@H]2[C@H](CC/C(CSC(=O)Oc3ccccc3)=C\C3[C@@H](O)[C@@H](C)C[C@]3(O)C1=O)C2(C)C` (some centres undefined), the EC50 in series [1] is 13.1 µM; in series [3], above 13.1 µM. Also, in series [2], the CC50 at 96 h turned out to be 13.1 µM.
Consider `C/C1=C\[C@@H]2[C@H](CC/C(CSC(=O)Oc3ccc(Cl)cc3)=C\C3[C@@H](O)[C@@H](C)C[C@]3(O)C1=O)C2(C)C` (some centres undefined), for which the EC50 in series [1] and in series [3] was above 45.4 µM throughout. Besides, in series [2], the half-maximal cytotoxic concentration (CC50) at 96 h is 45.4 µM.
For `C/C1=C\[C@@H]2[C@H](CC/C(CSC(=O)Oc3ccc(C)cc3)=C\C3[C@@H](O)[C@@H](C)C[C@]3(O)C1=O)C2(C)C` (some centres undefined), the selectivity ratio in series [4] was above 6.8; in series [5], above 4. The concentration for a half-maximal effect (EC50) in series [1] was determined as 6.6 µM; in series [3], 11.3 µM. Further, the CC50 at 96 h in series [2] stood at 45.1 µM.
For `C/C1=C\[C@@H]2[C@H](CC/C(CSC(=O)Oc3c(C)cccc3C)=C\C3[C@@H](O)[C@@H](C)C[C@]3(O)C1=O)C2(C)C` (some centres undefined), the EC50 in series [1] and in series [3] was above 100 µM throughout. Besides, in series [2], the CC50 at 96 h was above 100 µM.
As to `COc1ccc(OC(=O)SC/C2=C/C3[C@@H](O)[C@@H](C)C[C@]3(O)C(=O)/C(C)=C/[C@@H]3[C@H](CC2)C3(C)C)cc1` (some centres undefined), the concentration giving a half-maximal response (EC50) in series [1] and in series [3] was above 47.4 µM each time. For the same molecule, in series [2], the CC50 at 96 h came to 47.4 µM.
Consider `C/C1=C\[C@@H]2[C@H](CC/C(CSC(=O)Oc3ccc(F)cc3)=C\C3[C@@H](O)[C@@H](C)C[C@]3(O)C1=O)C2(C)C` (some centres undefined), for which the concentration giving a half-maximal response (EC50) in series [1] and in series [3] was above 45.2 µM throughout. Besides, the CC50 at 96 h in series [2] came out at 45.2 µM.
As to `C/C1=C\[C@@H]2[C@H](CC/C(CSC(=O)Oc3ccccc3Br)=C\C3[C@@H](O)[C@@H](C)C[C@]3(O)C1=O)C2(C)C` (some centres undefined), the EC50 in series [1] and in series [3] was above 45.2 µM throughout. The CC50 at 96 h in series [2] was determined as 45.2 µM.
Consider `C=C1CC[C@H]2[C@@H](/C=C(\C)C(=O)[C@@]3(OC(C)=O)C[C@H](C)[C@H](OC(=O)c4ccccc4)C3[C@H]1OC(C)=O)C2(C)C` (some centres undefined), for which the EC50 in series [1] and in series [3] was above 100 µM in each case. The CC50 at 96 h in series [2] is above 100 µM.
